The nature of series [1]: Partition coefficient in water-cyclohexane was determined. The series is classed as ADME.
For series [2] the following is noted: octanol/water.
Description: Partition coefficient (logP)
The nature of series [3]: physchem.
Description: Solubility in water was determined; values expressed as -log
The conditions of series [4]: water/hexadecane.
Description: Partition coefficient in water-hexadecane (P16) was determined
The nature of series [5]: physchem. The settings on record: octanol/water.
Description: Partition coefficient (logP)
The conditions of series [6]: water/alkane.
Description: Partition coefficient in alkanes was determined

In brackets after ≈: the same amount, converted by molar mass.

Take `CCCC` [BUTANE]: the “Log Pcyc” value in series [1] was 3.62. For the same compound, in series [2], the logP turned out to be 2.89. Moreover, the solubility in series [3] (buffer) is 2690 µM (≈ 156 µg/mL).
Regarding `CCCCCCCCC` [NONANE], the “Log P16” value in series [4] is on record as 6.49. The logP in series [5] was 5.65. Further, in series [3] (buffer), the solubility is 1.32 µM (≈ 0.169 µg/mL).
Compound `CCCCCCCCCCCCCC` showed a logP in series [5] of 8. The same compound gave a solubility in series [3] (water) of 0.011 µM (≈ 0.00218 µg/mL).
In the case of `CCCCCC` [HEXANE], the logP in series [2] was determined as 3.9. The amount in solution in series [3] (buffer) (solubility) came to 145 µM (≈ 12.5 µg/mL).
On to `CCCCCCCCCC` [DECANE], for which, in series [4], the “Log P16” value came out at 7.01. The same compound showed a logP in series [5] of 6.34. In series [3] (water), this compound gave a solubility of 0.105 µM (≈ 0.0149 µg/mL).
Regarding `CCCCCCCCCCCC` [DODECANE], in series [3] (buffer), the solubility was 0.0214 µM (≈ 0.00364 µg/mL).
As for `C` [METHANE], the “Log P16” value in series [4] was determined as 1.14. Moreover, the “Log Pcyc” value in series [1] was found to be 1.33. For the same compound, in series [6], the “Log Palk” value came out at 1.37.
Turning to `CCCCCCCCCCCCCCCC` [HEXADECANE], the logP in series [2] was 9.57. In series [3] (water), the concentration in solution (solubility) came to 0.00398 µM (≈ 0.000902 µg/mL).
With `CCCCC` [PENTANE], the “Log P16” value in series [4] was found to be 3.87. Besides, the “Log Pcyc” value in series [1] stood at 4.27. Also, the “Log Palk” value in series [6] is 4.06. The compound also had a solubility in series [3] (water) of 661 µM (≈ 47.7 µg/mL).
Regarding `CCCCCCC` [HEPTANE], the “Log P16” value in series [4] came to 5.14. The compound further showed a logP in series [5] of 4.5. In series [3] (water), this compound had a solubility of 29.5 µM (≈ 2.96 µg/mL).
Regarding `CCCCCCCC` [OCTANE], the “Log P16” value in series [4] is given as 5.79. The logP in series [5] turned out to be 5.15. The same compound showed a solubility in series [3] (water) of 5.75 µM (≈ 0.657 µg/mL).
